Results as given in US9073851B2, “Compositions and methods for treating cancer” (Board of Regents, The University of Texas System, priority 2011, dated 2015).

Assays:
MDA-MB-231 tumors = test: Orthotopic MDA-MB-231 xenograft breast cancer model; format: in vivo, nude mice; details: DOPC nanoliposomal, i.v., 5.8 mg/kg twice weekly (4 weeks)
Experimental: FIG. 3. New role for triptan derivatives targeting the 5-HT1B receptor as a therapeutic modality for breast cancer. (A). […] Treatments, twice per week (4 weeks) were safe and effective. Methods: Phospholipid dioleoylphosphatidylcholine (DOPC) and triptan 5-NT were mixed in tertiary butanol at a lipid:5-NT ratio of 10:1 (w/w). Tween 20 was added at a ratio of 1:20 ratio (w/w) and the mixture lyophilized overnight. The powder was reconstituted in saline and sonicated for one minute. The liposome formulation was injected (100 μl) into the tail vein. (B). 5-NT induces apoptotic cell death of ER(+) MCF-7 cells. (C). […] (D). […] (E). The 5-HT1B receptor is over-expressed in triple negative highly aggressive, and metastatic breast cancer cells as well as drug resistant (i.e. tamoxifen and doxorubicin) breast cancer cells. Methods: Blots were visualized with a FluorChem 8900 imager and quantified by a densitometer using the Alpha Imager application program.
For in vivo delivery siRNA was incorporated into dioleoyl-sn-glycero-3-phosphocholine (DOPC). DOPC and siRNA were mixed in the presence of excess tertiary butanol at a ratio of 1:10 (w/w) siRNA/DOPC [Shaw L M. Methods Mol Biol 2005: 294:97-105]. Before in vivo administration, this preparation was hydrated with normal 0.9% saline in 100 μL for i.v injection per mouse. […]

[1] = system: 5-HT1B or 5-HT1D receptor; test: Effect on cell proliferation after siRNA knockdown of 5-HT1B or 5-HT1D receptor; format: cell-based
breast cancer cells = test: Cell viability assay, breast cancer cell panel or cell line not stated; format: cell-based, human; details: incl. MDA-468, BT20, MDa-MB231, SKBR3, MDA-MB435, T47D, ZR75.1
Source text: (§1) (aka proliferation assay, in this case MTS assay was used. MTS, MTT, XTT all similar assays often used as cell viability/toxicity assay). Cell viability in response to compounds such as 5NT and KD06 was studied with a tetrazolium/formazan based assay (MTS, Celltiter 96 aqueous one solution cell proliferation assay, Promega, WI) [Akar U, Chaves-Reyez A, Barria g Tari A, Sanguino A, Kondo Y, Kondo S, Arun B, Lopez-Berestein G, Ozpolat B: Silencing of Bcl-2 expression by small interfering RNA induces autophagic cell death in MCF-7 breast cancer cells. Autophagy 2008, 4:669-679, Ozpolat 2007 MCR]. Cells were seeded in 96 wells plates at a density of 1.5 to 3.0×10^3 cells per well in 100 μl of medium. Next day the medium was removed and cells were treated with the drug in 100 μl of medium for 72 hours. Plates were read at 490 nm wavelength in an Elisa plate reader (Kinetic Microplate Reader, Molecular Devices Corporation, Sunnyvale, Calif.).

MCF7 cells = test: MTS cell viability/proliferation assay; format: cell-based, human
Source text: (§2) Viable and dead cells were detected by the trypan blue exclusion assay, where viable cells (non-stained) with intact membrane are able to exclude the dye, while dead cells take up the coloring blue agent from the media. To quantitatively assess the viability and/or proliferation of cells a MTS assay was used, which incorporates a redox indicator that changes color in response to metabolic activity. To study cell viability in response to CaMK-III siRNA or control siRNA and plasmid encoding CaMK-III or empty plasmid transfection cells were seeded in 96-well plates at a density of 3×10^3 cells per well in 100 μl of medium. Next day the medium was removed and cells were transfected with siRNA at different concentrations in 100 μl of medium plus transfection mix. Two days after transfection, the medium was removed and replaced by 180 μl of medium plus 20 μl of MTS and the cells were incubated under normal conditions until the color changed. Plates were read at dual wavelengths (570-595 nm) in an Elisa plate reader (Kinetic Microplate Reader, Molecular Devices Corporation, Sunnyvale, Calif.).
as §1

MCF7/Dox resistant cells = test: MTS cell viability/proliferation assay; format: cell-based, human
Source text: as §2, §1

MCF10A = test: MTS cell viability assay on normal breast epithelium; format: cell-based, human; details: at IC50 to IC90 doses in breast cancer cells (MCF7)
Source text: as §1

MCF-7 cells = test: Apoptosis / cell death in MCF-7 cells (Annexin V, FACS); format: cell-based, human
Experimental: Apoptosis was assessed by an Annexin V assay, monitoring PARP and caspase 9 cleavage by Western blot. To provide a comparative assay of apoptosis by Annexin V labeling, tumor cells (1×10^6) treated with CaMK-III siRNA or control siRNA for 24 to 96 hours were harvested and washed with PBS. Cells were resuspended in binding buffer and stained with Annexin V and propidium iodide (PI) according to the manufacturer's protocol (BD Pharmingen Annexin V kit, San Diego, Calif.). Positive cells were detected and quantified by FACS analysis.

MDA-MB-231 cells = test: MTS cell viability/proliferation assay; format: cell-based, human; details: triple negative
Source text: Viable and dead cells were detected by the trypan blue exclusion assay, the viability and/or proliferation of cells a MTS assay was used [Akar U, et al. Autophagy 2008: 4:669-79].
as §2, with “Two days after transfection, the medium was removed and replaced by 180 μl of medium plus 20 μl of MTS and the cells were incubated under normal conditions until the color changed.” left out
(aka proliferation assay, in this case MTS assay was used. MTS, MTT, XTT all similar assays often used as cell viability/toxicity assay). […] Plates were read at 490 nm wavelength in an Elisa plate reader (Kinetic Microplate Reader, Molecular Devices Corporation, Sunnyvale, Calif.).

eEF-2K = test: Western blot of MCF-7 cells treated with 5-NT; format: cell-based, human
Experimental: (§3) FIG. 5. 5-NT down-regulates critical pro-tumorigenic processes in ER(+) MCF-7 triple negative breast cancer cells. […] 5-NT also induces PARP cleavage and LC3-II. Methods: MCF7 cells were cultured at 37° C. in DMEM supplemented with 5% FBS in a humid incubator with 5% CO2. Following incubation with or without 5-NT cells were lysed according to standard protocols for western blotting. Blots were quantified as in FIG. 3.
as §3, with “FIG. 9.” for “FIG. 5.”, “MCF-7” for “MCF-7 triple negative”, “and LC3-II formation.” for “and LC3-II.”, “without 5-NT,” for “without 5-NT”, “FIG. 7.” for “FIG. 3.”

CCCCCCCCCOc1ccc2[nH]cc(CCN)c2c1 [5-NT, 5-nonylytryptamine]
tumor growth (MDA-MB-231 tumors): significantly inhibits growth
effect of compound after knockdown of 5-HT1B or 5-HT1D receptor [1]: blunts the effect
cell survival (O.D.) in a large panel of breast cancer cells (breast cancer cells): effective against almost all breast cancer cell lines
selectivity for tumorigenic MCF-7 compared to non-tumorigenic MCF-10A (MCF7 cells): much higher selectivity
inhibition of proliferation (MCF7 cells; ER(+)): inhibits proliferation
inhibition of proliferation (MCF7/Dox resistant cells): inhibits proliferation
toxicity against normal breast epithelium (MCF10A): not toxic
induction of apoptosis (MCF-7 cells): induced robust apoptosis
cell death in combination with doxorubicin (MCF-7 cells; with a low dose of doxorubicin): synergistic cell death
inhibition of proliferation (MDA-MB-231 cells): inhibits proliferation
time to down-regulation of ERK/cyclin-D, Akt/mTor, IGF1-R, Src/Fak and eEF-2K (eEF-2K): ≤ 4 h
